In ChEMBL document CHEMBL1146082, “Development of a structural model for NF-kappaB inhibition of sesquiterpene lactones using self-organizing neural networks” (J Med Chem, 2006):

Biological target: Transcription factor p65 (Homo sapiens) (UniProt Q04206)
Experiment: Inhibition of NF-kappaB DNA binding by EMSA

Sequence of Transcription factor p65 (Homo sapiens) (Q04206 whole entry): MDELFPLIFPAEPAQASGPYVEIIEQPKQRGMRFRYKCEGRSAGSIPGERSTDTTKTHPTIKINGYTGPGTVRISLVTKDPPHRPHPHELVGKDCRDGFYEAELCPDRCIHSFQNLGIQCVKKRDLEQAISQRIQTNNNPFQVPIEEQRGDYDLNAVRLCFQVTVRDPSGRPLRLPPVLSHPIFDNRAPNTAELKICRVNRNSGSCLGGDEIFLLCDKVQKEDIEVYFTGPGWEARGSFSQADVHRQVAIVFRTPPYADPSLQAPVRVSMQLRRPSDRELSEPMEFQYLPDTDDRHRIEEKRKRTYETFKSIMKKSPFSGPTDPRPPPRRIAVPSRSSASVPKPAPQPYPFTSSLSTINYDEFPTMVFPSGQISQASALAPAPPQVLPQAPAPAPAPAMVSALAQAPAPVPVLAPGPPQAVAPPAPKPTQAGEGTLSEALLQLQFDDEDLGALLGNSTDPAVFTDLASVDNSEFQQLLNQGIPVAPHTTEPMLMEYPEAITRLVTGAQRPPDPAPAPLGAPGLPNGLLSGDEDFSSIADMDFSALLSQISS

Question: Which IC100 does the source give for `C=C1C(=O)O[C@H]2/C=C(\C)[C@@H](O)CC/C(C)=C/[C@@H](O)[C@H]12` here?
Answer: 200 µM

Question: How did the IC100 turn out when `C=C1C(=O)O[C@@H]2[C@H]1[C@@H](OC(=O)[C@]1(C)O[C@@H]1C)C(=O)[C@@]1(C)C=CC[C@@](C)(O)[C@H]21` was run?
Answer: 10 µM

Question: With `C=C1C(=O)O[C@@H]2C3=C(C(=O)C[C@@H]3C)[C@@H](C)CC[C@@H]12` as the molecule, how does the IC100 read?
Answer: 20 µM

Question: `C=C1C(=O)O[C@@H]2/C=C(/CO)[C@@]3(O)C[C@@H](O)[C@@](C)(C[C@@H](OC(=O)/C(C)=C\C)[C@@H]12)O3` was tested. Which IC100 did it give?
Answer: 20 µM

Question: With `C=C1C(=O)O[C@@H]2/C=C(\COC(=O)C(C)C)CC/C=C(\CO)C(=O)C[C@@H]12` as the molecule, how does the IC100 read?
Answer: 12.5 µM

Question: How did the IC100 turn out when `C=C1C(=O)O[C@@H]2/C=C(\C)CC/C=C(\C)CC[C@@H]12` was run?
Answer: 50 µM

Question: Which IC100 does the source give for `C=C1C(=O)O[C@@H]2/C=C(/C)[C@]3(O)O[C@](C)(C[C@@H](OC(=O)C(C)C)[C@@H]12)C(=O)[C@@H]3OC` here?
Answer: 200 µM

Question: For `C=C1C(=O)O[C@]23C[C@H]1CCC(CO)=C2C(=O)C=C3C`, which IC100 is on record?
Answer: 50 µM

Question: For `C[C@H]1C(=O)O[C@H]2C/C(CO)=C/CC/C(CO)=C/C[C@@H]21`, which IC100 is on record?
Answer: 300 µM

Question: How did the IC100 turn out when `C=C1C(=O)O[C@@H]2[C@H]3C(C)=CC[C@@H](O)[C@]3(C)CC[C@@H]12` was run?
Answer: 100 µM

Question: With `C=C1C(=O)O[C@H]2[C@H]1[C@@H](OC(=O)/C(C)=C/C)C/C(C)=C\[C@@]1(OC)C=C(C)[C@@H]2O1` as the molecule, how does the IC100 read?
Answer: 10 µM

Question: For `C=C(C)C(=O)O[C@H]1[C@H]2C(=C)C(=O)O[C@@H]2/C=C(\COC(C)=O)CC/C=C(/C=O)[C@@H]1O`, which IC100 is on record?
Answer: 5 µM

Question: For `CC(=O)O[C@H]1[C@@H]2[C@H](C)C(=O)O[C@@H]2C[C@@H](C)[C@@H]2C=CC(=O)[C@]21C`, which IC100 is on record?
Answer: 200 µM

Question: How did the IC100 turn out when `C=C1C(=O)O[C@H]2C[C@H](C)C3=C(C[C@H]12)[C@@H](C)CC3=O` was run?
Answer: 20 µM

Question: For `C=C1C(=O)C=C2[C@H]1C[C@@H]1C(=C)C(=O)O[C@H]1C[C@@H]2C`, which IC100 is on record?
Answer: 5 µM

Question: With `C=C(C)C(=O)O[C@@H]1/C=C(\C=O)CCCC(=C)[C@H](O)[C@H]2OC(=O)C(=C)[C@@H]21` as the molecule, how does the IC100 read?
Answer: 10 µM

Question: With `C=C(C)C(=O)O[C@H]1[C@H]2C(=C)C(=O)O[C@@H]2[C@@H]2O[C@]2(C)CC/C=C(/C=O)[C@@H]1O` as the molecule, how does the IC100 read?
Answer: 10 µM

Question: With `C=C1C(=O)O[C@@H]2/C=C(/CO)[C@@]3(O)CC[C@@](C)(C[C@@H](OC(=O)/C(C)=C\C)[C@@H]12)O3` as the molecule, how does the IC100 read?
Answer: 20 µM

Question: For `C=C1C(=O)O[C@H]2C[C@]3(C)O[C@@H]3C[C@@H](OC(C)=O)C3=C[C@@H](OC3=O)[C@H]12`, which IC100 is on record?
Answer: 10 µM

Question: How did the IC100 turn out when `C=C1C(=O)O[C@H]2/C=C(\C)CC/C=C(/C)C(=O)[C@H](OC(=O)[C@@]3(C)O[C@H]3C)[C@@H]12` was run?
Answer: 50 µM

Question: For `C=C1C(=O)O[C@@H]2/C=C(\COC(=O)C(C)C)CC/C=C(\CO)[C@H](O)C[C@@H]12`, which IC100 is on record?
Answer: 100 µM

Question: `C=C1C(=O)O[C@@H]2C[C@@H](C)[C@@H]3C=CC(=O)[C@@]3(C)[C@@H](OC(=O)C(C)C)[C@H]12` was tested. Which IC100 did it give?
Answer: 20 µM

Question: How did the IC100 turn out when `C=C1C(=O)C[C@H]2C(=C)C(=O)O[C@@H]2/C=C(\COC(=O)C(C)C)CC[C@H]1OC` was run?
Answer: 25 µM

Question: How did the IC100 turn out when `C=C1C(=O)O[C@@H]2C[C@H](C)[C@@]3(O)CC[C@@](C)(C[C@@H](OC(=O)C(C)C)[C@@H]12)O3` was run?
Answer: 200 µM

Question: For `C=C1C(=O)O[C@@H]2[C@H]3C(CO)=CC(=O)C3=C(C)CC[C@@H]12`, which IC100 is on record?
Answer: 50 µM

Question: Which IC100 does the source give for `C=C(C)C(=O)O[C@@H]1/C=C(\C=O)CCC[C@@]2(CO2)[C@H](O)[C@H]2OC(=O)C(=C)[C@@H]21` here?
Answer: 5 µM

Question: With `C=C1C(=O)O[C@]23C[C@H]1CCC(COC(C)=O)=C2C(=O)C=C3C` as the molecule, how does the IC100 read?
Answer: 100 µM

Question: `C=C1C(=O)O[C@@H]2C[C@@H](C)[C@@H]3CCC(=O)[C@@]3(C)C[C@H]12` was tested. Which IC100 did it give?
Answer: 50 µM

Question: How did the IC100 turn out when `C=C1C(=O)O[C@@H]2/C=C(\C)[C@H](OC(C)=O)C/C=C(/C)CC[C@@H]12` was run?
Answer: 50 µM

Question: For `C=C1C(=O)C=C2[C@H]1C[C@@H]1C(=C)C(=O)O[C@@H]1C[C@@H]2C`, which IC100 is on record?
Answer: 10 µM

Question: `C=C(CO)C(=O)OC/C1=C\C[C@@H]2C(=C)C(=O)O[C@H]2C/C(COC(C)=O)=C/CC1` was tested. Which IC100 did it give?
Answer: 50 µM
